These are literature values, as cited in US8883786B2, “Glucocorticoid receptor antagonists” (Hoffmann-La Roche Inc., priority 2007, dated 2014).

The conditions of series [1]: clinical administration, chronic, Cushing's patients.
The subject of series [2] is Hypothalamus-Pituitary gland-Adrenal gland (HPA) axis. Conditions: HPA axis stimulation via feed-back mechanism.
For a further series, the system named is ob/ob mice. As to conditions: leptin deficient ob/ob mice.
The conditions of series [3]: clinical administration, acute, normal volunteers.
The test system of a further series is gluconeogenic enzymes. As to conditions: db/db mice.
The conditions of series [4]: long term treatment (up to 1 year).

Consider `CC#C[C@]1(O)CC[C@H]2[C@@H]3CCC4=CC(=O)CCC4=C3[C@@H](c3ccc(N(C)C)cc3)C[C@@]21C` [RU486/mifepristone, mifepristone], for which, in series [1], the “plasmatic HbA1c” value is “decrease of plasmatic HbA1c”. For the same molecule, in series [2], the “endogenous corticosteroids circulating in the blood” value is recorded as “increase of endogenous corticosteroids circulating in the blood”. Moreover, the fasting plasma glucose entry is “normalizes fasting plasma glucose” with ob/ob mice and “decrease of fasting plasma glucose” in series [3]. The “activity of gluconeogenic enzymes” value in the series with gluconeogenic enzymes is “normalizes”. In addition, in series [4], the adrenal insufficiency symptoms result is given as “induces some adrenal insufficiency symptoms”.
